This note sets out measurements from patent US8247224B2, “Recombinant construct for detection of halogenated aromatic hydrocarbons” (National Health Research Institutes, priority 2010, dated 2012).

The target of this assay is T1, AhR (Rattus norvegicus, UniProt P41738).
T1 construct: introducing a recombinant construct as described above into a host cell that expresses AhR; endogenous in cells; host or cells: H-4-II-E cells infected with the AdEasy-4XDRE-TATA-Luc reporter adenovirus
T1 sequence (P41738 10-853): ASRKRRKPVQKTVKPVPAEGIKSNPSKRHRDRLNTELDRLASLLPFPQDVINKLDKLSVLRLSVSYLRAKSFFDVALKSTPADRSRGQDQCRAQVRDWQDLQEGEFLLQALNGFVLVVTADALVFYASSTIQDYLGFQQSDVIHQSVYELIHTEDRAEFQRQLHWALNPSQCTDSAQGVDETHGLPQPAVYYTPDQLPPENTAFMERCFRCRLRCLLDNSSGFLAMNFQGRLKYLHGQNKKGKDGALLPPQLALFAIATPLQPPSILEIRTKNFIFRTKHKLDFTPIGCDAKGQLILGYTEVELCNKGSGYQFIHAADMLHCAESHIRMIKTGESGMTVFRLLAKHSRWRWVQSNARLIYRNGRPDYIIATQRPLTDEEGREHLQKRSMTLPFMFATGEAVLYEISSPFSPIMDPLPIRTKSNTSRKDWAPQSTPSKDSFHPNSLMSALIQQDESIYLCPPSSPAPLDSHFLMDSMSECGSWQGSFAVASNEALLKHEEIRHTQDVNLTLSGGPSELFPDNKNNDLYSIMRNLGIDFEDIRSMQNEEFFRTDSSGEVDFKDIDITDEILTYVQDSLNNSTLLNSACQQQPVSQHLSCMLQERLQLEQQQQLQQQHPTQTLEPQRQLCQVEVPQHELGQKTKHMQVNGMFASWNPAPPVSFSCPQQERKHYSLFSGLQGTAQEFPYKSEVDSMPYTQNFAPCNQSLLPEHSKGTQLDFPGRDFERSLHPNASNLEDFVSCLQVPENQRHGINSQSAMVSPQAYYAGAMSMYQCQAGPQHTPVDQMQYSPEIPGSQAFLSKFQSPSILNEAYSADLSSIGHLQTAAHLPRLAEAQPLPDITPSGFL
The assay can be described thus: Luciferase activity of H-4-II-E cells infected with AdEasy-4XDRE-TATA-Luc and treated with TCDD. In kind it is cell-based. The settings on record: AdEasy-4XDRE-TATA-Luc at MOI of one particles/cell for 16 hours, TCDD for 24 hours, luciferase activity (RLU), FIG. 6. The text has this: As known in the art, the action of the HAH compounds is mediated through a cytosolic transcription factor, called the aryl hydrocarbon receptor (AhR). After binding of the ligand (HAH compounds), the resulted AhR complex binds to specific DNA sequences i.e. DREs, and then results in transcriptional activation of the adjacent responsive genes. The consensus sequence of the DREs is 5′-TNGCGTG-3′ where N means any nucleotide of A, T, G and C.
H-4-II-E cells (Bioresources Collection and Research Center (BCRC), Food Industry Research and Development Institute (FIRDI), Hsinchu, Taiwan) were seeded on 96-well plates at a density of 2×10^4 cells/well in culture medium (80% Minimum essential medium Eagle with 0.1 mM non-essential amino acids, Earle's BSS, 10% fetal bovine serum and 10% calf serum) and cultured overnight in a humidified atmosphere containing 5% CO2 at 37° C. Subsequently, the cells were incubated with AdEasy-4XDRE-TATA-Luc as obtained in Example 1 at a multiplicity of infection (MOI) of one particles/cell for 16 hours. […] Luciferase activity was measured by Luciferase Assay System (Promega, Madison, Wis., USA) according to the standard protocol as provided using the programmed microplate luminometer MicroLumatPlus LB96V (EG&G Berthold, Germany). The luciferase activity was expressed as relative light units (RLU).

For the compound `Clc1cc2c(cc1Cl)Oc1cc(Cl)c(Cl)cc1O2` [TCDD, 2,3,7,8-tetrachlorodibenzo-p-dioxin], the “concentrations between which the luciferase response shows a steep slope” value is listed as 10^−12 to 10^−10 M and the detection limit entry is “around 10^−12 M”.
